Assay results as given in publication PMC8887546, “Design and Synthesis of Brain Penetrant Glycopeptide Analogues of PACAP With Neuroprotective Potential for Traumatic Brain Injury and Parkinsonism” (Frontiers in drug discovery, 2022).

Tests used:
[1] = test system: Sprague Dawley rats, 6-OHDA lesion; test: Striatal dopamine content, HPLC-EC (study 2); format: in vivo, rat; settings: more severe (40%) lesion, vs vehicle
Method: Rats were treated with 2LS98Lac or saline (vehicle) as outlined in the Schemes in Figures 9A,B via intraperitoneal (i.p.) injection (15 mg/kg). All animals were made hemi-parkinsonian with unilateral, striatal 6-hydroxydopamine (Sigma Aldrich, St. Louis, MO) injections. After surgery, behavioral assessments were done at 2- and 4-weeks post-surgery. 24 h after the last test animals were either euthanized and whole brains were harvested for future biochemical analysis or perfused and brains collected for immunohistochemistry and stereological assessment of tyrosine hydroxylase-positive (TH+) cells remaining in the SNc. In study 1: n = 16 each group were included, and all underwent the behavioral analysis: n = 16, and for the stereology in the SNc, n = 8 each group was used. In study 2: n = 23 each group were included. […] In the 2LS98Lac group, one video at 4 weeks was lost, reducing n = 22 in this specific analysis, and for the stereology, 2 brains were damaged during processing and could not be included in the stereology of the SNc, therefore […]. For biochemical subanalyses, n = 8 each group. For the microglial morphology subanalysis n = 7 each group.
FIGURE 9 | Evaluation of neuroprotection of the PACAP glycopeptide 2LS98Lac in rat Parkinson’s disease models. (A) Scheme for study 1, using a mild PD lesion. (B) Scheme for study 2, using a moderate PD lesion. […]

human PAC1 receptor = target: T1, human PAC1 receptor (Homo sapiens, UniProt P41586); test: cAMP stimulation in CHO cells expressing PAC1; format: cell-based
T1 construct: expressed in transfected cells; host or cells: CHO cells (G418 selection)
T1 sequence (P41586 21-468): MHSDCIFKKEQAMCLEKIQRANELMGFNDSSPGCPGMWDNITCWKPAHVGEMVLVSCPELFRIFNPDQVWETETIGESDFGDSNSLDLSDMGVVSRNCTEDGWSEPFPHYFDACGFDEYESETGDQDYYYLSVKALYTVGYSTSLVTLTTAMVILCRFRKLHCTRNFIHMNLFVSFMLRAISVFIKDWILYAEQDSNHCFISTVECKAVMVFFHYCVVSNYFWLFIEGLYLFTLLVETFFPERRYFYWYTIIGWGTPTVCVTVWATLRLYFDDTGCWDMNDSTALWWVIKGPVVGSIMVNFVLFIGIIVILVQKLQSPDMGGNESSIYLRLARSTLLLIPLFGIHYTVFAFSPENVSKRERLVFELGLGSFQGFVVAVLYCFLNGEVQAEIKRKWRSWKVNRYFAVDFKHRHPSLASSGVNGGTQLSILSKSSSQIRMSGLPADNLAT
Procedure, shortened: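 Serum-starved CHO cells expressing human receptors were pre-treated 20 min with 500 μM IBMX, then exposed to agonist concentration curves for 10 min in 500 μM IBMX. cAMP quantified by competition with bovine PKA and ^3H-cAMP (1 h, room temperature), scintillation read.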

Compound: [2H]C([2H])([2H])C([2H])(C([2H])([2H])[2H])[C@]([2H])(NC(=O)[C@H](C)NC(=O)[C@H](C)NC(=O)[C@H](CC(C)C)NC(=O)[C@H](Cc1ccc(O)cc1)NC(=O)[C@H](CCCCN)NC(=O)[C@H](CCCCN)NC(=O)[C@@]([2H])(NC(=O)[C@H](C)NC(=O)[C@H](CC(C)C)NC(=O)[C@H](CCC(N)=O)NC(=O)[C@H](CCCCN)NC(=O)[C@H](CCCNC(=N)N)NC(=O)[C@H](Cc1ccc(O)cc1)NC(=O)[C@H](CCCNC(=N)N)NC(=O)[C@H](CO)NC(=O)[C@H](Cc1ccc(O)cc1)NC(=O)[C@H](CO)NC(=O)[C@H](CC(=O)O)NC(=O)[C@@H](NC(=O)[C@H](Cc1ccccc1)NC(=O)[C@@H](NC(=O)CNC(=O)[C@H](CC(=O)O)NC(=O)[C@H](CO)NC(=O)[C@@H](N)Cc1c[nH]cn1)[C@@H](C)CC)[C@@H](C)O)C([2H])(C([2H])([2H])[2H])C([2H])([2H])[2H])C(=O)N[C@@H](CC(C)C)C(=O)N[C@@H](CO[C@@H]1O[C@H](CO)[C@@H](O[C@@H]2O[C@H](CO)[C@H](O)[C@H](O)[C@H]2O)[C@H](O)[C@H]1O)C(N)=O [Compound 2LS98Lac]
- Striatal DA content [1]: no significant difference
- EC50 (human PAC1 receptor): 0.72 nM
- Emax (human PAC1 receptor; CHO): 93%
